{"source": "patent US20150209315A1", "about": "(Cumberland Pharmaceuticals, priority 2009, published 2015)", "format_in_all_cases": "in vivo, human", "key": {"[1]": {"system": "post-operative adult patients", "assay": "Example 2: patient self-assessment of pain, VAS at rest", "settings": "800 mg"}, "[2]": {"system": "fever in hospitalized patients", "assay": "Clinical trials of intravenous ibuprofen for fever"}, "patients": {"system": "patients", "assay": "Safety in all clinical studies conducted to date", "settings": "for postoperative GI bleeding or renal complications: up to 5 days of treatment, abdominal and orthopedic surgical procedures"}, "[3]": {"system": "post-operative adult patients", "assay": "Example 2: morphine use in the 24 hours following abdominal hysterectomy surgery", "settings": "800 mg; for Morphine Requirement, Mean (SD) / Morphine Requirement, Median: 24 hours following surgery; for Transformed Morphine Requirement, LSMeans (SE) / Transformed Morphine Requirement, Max / Transformed Morphine Requirement, Mean (SD) / Transformed Morphine Requirement, Median / Transformed Morphine Requirement, Min: Box Cox transformation", "description": "To be eligible for this study, the patients met the following inclusion criteria: 1) scheduled for elective abdominal hysterectomy surgery with anticipated need for post-operative I.V. morphine analgesia with anticipated use of greater than 24 hours; 2) adequate IV access; and 3) anticipated hospital stay greater than 24 hours. The study exclusion criteria required patients only between the ages of 18 and 70 years old. […] Efficacy was measured by comparing the reduction in morphine use over the 24 hours immediately post surgery. Efficacy was measured by reduction in the requirement for the narcotic analgesic, morphine, in the 24 hours post surgery.\nThe Clinical Trial Material (“CTM”) was mixed in 250 mL normal saline. Saline was chosen as the control group (placebo) for this study, to ensure blinding and allow for analysis of treatment effect.\nBy protocol, patients were to be dosed every six hours for five doses, then as necessary (PRN) for pain every six hours for up to five days post surgery. However, after 24 hours through day 5, CTM had to be discontinued if there was a requirement for narcotic pain medication other than morphine or non-narcotic medications including the use of another NSAID. Further, after 24 hours through day 5, CTM may have been discontinued if there was resolution of pain, no IV access or discharge from the hospital.\nThe study participants were randomized based on criteria for an efficacy evaluable population (EEP) versus an intent to treat population (ITT). […] The intent-to-treat population (ITT) consists of AT patients who received at least one post-surgical dose of CTM or at least one dose of morphine for break-through pain. The efficacy evaluable population (EEP) consists of all ITT patients who received each of the first five doses of CTM within 60 minutes of the scheduled time and who have the 6-hour and 28-hour VAS with movement assessments.\nEligible patients were randomized to one of the two treatment groups. All patients were able (but were not required) to receive morphine until approximately 45 minutes before the end of the surgical procedure. After that time, only fentanyl was allowed until the end of the operation. […] Upon discharge from the operating room, patients had access to morphine (approximately 1-2 mg q 5 minutes) upon patient request or delivered by patient-controlled analgesia (PCA). […] Upon discharge from the operating room, patients had access to 1 mg morphine every 5 minutes upon request or by patient-controlled analgesia (PCA). […] Patients given non-morphine analgesics were classified as treatment failures. Treatment failures were not replaced.\n(§1) Patients were evaluated and compared for morphine requirements between the active doses and placebo using analysis of variance and covariance procedures at an overall alpha level of 0.05. Secondary efficacy parameters were also evaluated and compared among the treatment groups using appropriate statistical methods described in the statistical analysis section of the protocol. Safety information was compared between the treatment groups using Chi-Square or Cochran-Mantel-Haenszel test. Demographic, background and baseline information among the treatment groups was also described.\nThe primary endpoint for the study was reduction in the requirement for morphine use in the 24 hours following surgery as measured by total morphine usage compared to placebo. Analysis of variance and covariance procedures were used to compare the reduction in the requirement for morphine use in the 24 hours following surgery among the treatment groups. Dunnet's test was used as a multiple comparison test to compare active dose groups with the placebo group at an overall alpha level of 0.05. In the primary model, center was introduced as a covariate."}, "[4]": {"system": "post-operative adult patients", "assay": "Example 2: adverse events", "settings": "800 mg", "description": "as §1"}, "[5]": {"system": "post-operative adult patients", "assay": "Example 1: adverse events and safety labs", "description": "as §1"}}, "note": "“And” between values parts separate entries of the source, which are not always exact repeats. Equal entries are not always repeated."}
{"smiles": "CC(C)Cc1ccc(C(C)C(=O)O)cc1", "note": "(stereo not drawn) [Ibuprofen, 2-(4-isobutylphenyl) propionic acid]", "values": [{"measurement": "VAS Score measured at Rest (median)", "setting": "[1]; EEP, 1-Hour", "value": 8.0}, {"measurement": "VAS Score measured at Rest, % Reduction vs Placebo", "setting": "[1]; EEP, 1-Hour", "value": 0.0, "unit": "%"}, {"measurement": "VAS Score measured at Rest (median)", "setting": "[1]; EEP, 3-Hour", "value": 5.0}, {"measurement": "VAS Score measured at Rest, % Reduction vs Placebo", "setting": "[1]; EEP, 3-Hour", "value": 16.7, "unit": "%"}, {"measurement": "VAS Score measured at Rest (median)", "setting": "[1]; EEP, 6-Hour", "value": 4.0}, {"measurement": "VAS Score measured at Rest, % Reduction vs Placebo", "setting": "[1]; EEP, 6-Hour", "value": 20.0, "unit": "%"}, {"measurement": "VAS Score measured at Rest (median)", "setting": "[1]; EEP, 9-Hour", "value": 3.0}, {"measurement": "VAS Score measured at Rest (median)", "setting": "[1]; EEP, 12-Hour", "value": 2.5}, {"measurement": "VAS Score measured at Rest, % Reduction vs Placebo", "setting": "[1]; EEP, 12-Hour", "value": 16.7, "unit": "%"}, {"measurement": "VAS Score measured at Rest (median)", "setting": "[1]; EEP, 15-Hour", "value": 2.0}, {"measurement": "VAS Score measured at Rest, % Reduction vs Placebo", "setting": "[1]; EEP, 15-Hour", "value": 33.3, "unit": "%"}, {"measurement": "VAS Score measured at Rest (median)", "setting": "[1]; EEP, 18-Hour", "value": 2.0}, {"measurement": "VAS Score measured at Rest, % Reduction vs Placebo", "setting": "[1]; EEP, 18-Hour", "value": 33.3, "unit": "%"}, {"measurement": "VAS Score measured at Rest (median)", "setting": "[1]; EEP, 21-Hour", "value": 1.0}, {"measurement": "VAS Score measured at Rest, % Reduction vs Placebo", "setting": "[1]; EEP, 21-Hour", "value": 66.7, "unit": "%"}, {"measurement": "VAS Score measured at Rest (median)", "setting": "[1]; EEP, 24-Hour", "value": 2.0}, {"measurement": "VAS Score measured at Rest, % Reduction vs Placebo", "setting": "[1]; EEP, 24-Hour", "value": 33.3, "unit": "%"}, {"measurement": "VAS Score measured at Rest (median)", "setting": "[1]; ITT, 1-Hour", "value": 8.0}, {"measurement": "VAS Score measured at Rest, % Reduction vs Placebo", "setting": "[1]; ITT, 1-Hour", "value": 0.0, "unit": "%"}, {"measurement": "VAS Score measured at Rest (median)", "setting": "[1]; ITT, 3-Hour", "value": 5.7}, {"measurement": "VAS Score measured at Rest, % Reduction vs Placebo", "setting": "[1]; ITT, 3-Hour", "value": 5.0, "unit": "%"}, {"measurement": "VAS Score measured at Rest (median)", "setting": "[1]; ITT, 6-Hour", "value": 4.0}, {"measurement": "VAS Score measured at Rest, % Reduction vs Placebo", "setting": "[1]; ITT, 6-Hour", "value": 11.1, "unit": "%"}, {"measurement": "VAS Score measured at Rest (median)", "setting": "[1]; ITT, 9-Hour", "value": 3.0}, {"measurement": "VAS Score measured at Rest (median)", "setting": "[1]; ITT, 12-Hour", "value": 2.7}, {"measurement": "VAS Score measured at Rest, % Reduction vs Placebo", "setting": "[1]; ITT, 12-Hour", "value": 20.6, "unit": "%"}, {"measurement": "VAS Score measured at Rest (median)", "setting": "[1]; ITT, 15-Hour", "value": 2.0}, {"measurement": "VAS Score measured at Rest, % Reduction vs Placebo", "setting": "[1]; ITT, 15-Hour", "value": 31.0, "unit": "%"}, {"measurement": "VAS Score measured at Rest (median)", "setting": "[1]; ITT, 18-Hour", "value": 2.0}, {"measurement": "VAS Score measured at Rest, % Reduction vs Placebo", "setting": "[1]; ITT, 18-Hour", "value": 31.0, "unit": "%"}, {"measurement": "VAS Score measured at Rest (median)", "setting": "[1]; ITT, 21-Hour", "value": 2.0}, {"measurement": "VAS Score measured at Rest, % Reduction vs Placebo", "setting": "[1]; ITT, 21-Hour", "value": 33.3, "unit": "%"}, {"measurement": "VAS Score measured at Rest (median)", "setting": "[1]; ITT, 24-Hour", "value": 2.0}, {"measurement": "VAS Score measured at Rest, % Reduction vs Placebo", "setting": "[1]; ITT, 24-Hour", "value": 31.0, "unit": "%"}, {"measurement": "treated patients with reduced fever", "setting": "[2]; at 4 hours", "value": 100, "unit": "%"}, {"measurement": "placebo-treated vs IV Ibuprofen treated patients with uncontrolled fever", "setting": "[2]; at 24 hours", "value": "~4", "unit": "times"}, {"measurement": "reduction in temperature", "setting": "[2]; critically ill patients, 48-hour study period", "value": "Significant reduction in temperature was maintained"}, {"measurement": "acetaminophen requirement and fever control vs acetaminophen alone", "setting": "[2]; critically ill patients, subset analysis", "value": "required less acetaminophen and had better fever control"}, {"measurement": "Rapid fever reduction seen as fast as", "setting": "[2]; malaria patients", "value": 30, "unit": "min"}, {"measurement": "patients with significant fever reduction", "setting": "[2]; phase 3 clinical trial, within 4 hours, vs 32% with placebo", "value": 77, "unit": "%"}, {"measurement": "impact on key metabolic and hematologic parameters", "setting": "patients; all clinical studies conducted to date", "value": "no impact"}, {"measurement": "patients with at least one morphine side effect vs placebo", "setting": "patients; clinical trials, postoperative", "value": "significantly fewer patients"}, {"measurement": "postoperative GI bleeding or renal complications", "setting": "patients; listed as IV Ibuprofen", "value": "No postoperative GI bleeding or renal complications were seen"}, {"measurement": "postoperative GI bleeding or renal complications", "setting": "patients; listed as intravenous ibuprofen", "value": "No bleeding or renal toxicity was reported"}, {"measurement": "adverse event profile", "setting": "patients; vs placebo", "value": "comparable to placebo"}, {"measurement": "Morphine Requirement, Max", "setting": "[3]; Efficacy Evaluable", "value": 143.3, "unit": "mg"}, {"measurement": "Morphine Requirement, Min", "setting": "[3]; Efficacy Evaluable", "value": 4.0, "unit": "mg"}, {"measurement": "Morphine Requirement, Mean (SD)", "setting": "[3]; Efficacy Evaluable", "value": "45.5 mg and 45.5 (24.6) mg"}, {"measurement": "Morphine Requirement, Median", "setting": "[3]; Efficacy Evaluable", "value": 42.0, "unit": "mg"}, {"measurement": "Transformed Morphine Requirement, LSMeans (SE)", "setting": "[3]; Efficacy Evaluable", "value": "10.8 (0.3) mg"}, {"measurement": "Transformed Morphine Requirement, Max", "setting": "[3]; Efficacy Evaluable", "value": 21.2, "unit": "mg"}, {"measurement": "Transformed Morphine Requirement, Mean (SD)", "setting": "[3]; Efficacy Evaluable", "value": "10.7 (3.5) mg"}, {"measurement": "Transformed Morphine Requirement, Median", "setting": "[3]; Efficacy Evaluable", "value": 10.7, "unit": "mg"}, {"measurement": "Transformed Morphine Requirement, Min", "setting": "[3]; Efficacy Evaluable", "value": 2.0, "unit": "mg"}, {"measurement": "Morphine Requirement, Max", "setting": "[3]; Intent-to-Treat", "value": 143.3, "unit": "mg"}, {"measurement": "Morphine Requirement, Min", "setting": "[3]; Intent-to-Treat", "value": 4.0, "unit": "mg"}, {"measurement": "Morphine Requirement, Mean (SD)", "setting": "[3]; Intent-to-Treat", "value": "47.3 mg and 47.3 (25.6) mg"}, {"measurement": "Morphine Requirement, Median", "setting": "[3]; Intent-to-Treat", "value": 43.5, "unit": "mg"}, {"measurement": "Transformed Morphine Requirement, LSMeans (SE)", "setting": "[3]; Intent-to-Treat", "value": "12.1 (0.4) mg"}, {"measurement": "Transformed Morphine Requirement, Max", "setting": "[3]; Intent-to-Treat", "value": 23.5, "unit": "mg"}, {"measurement": "Transformed Morphine Requirement, Mean (SD)", "setting": "[3]; Intent-to-Treat", "value": "11.8 (4.0) mg"}, {"measurement": "Transformed Morphine Requirement, Median", "setting": "[3]; Intent-to-Treat", "value": 11.8, "unit": "mg"}, {"measurement": "Transformed Morphine Requirement, Min", "setting": "[3]; Intent-to-Treat", "value": 2.0, "unit": "mg"}, {"measurement": "patients experiencing adverse events or serious adverse events vs placebo", "setting": "[4]", "value": "no significant differences in the number of patients experiencing adverse events or serious adverse events between groups"}, {"measurement": "patients experiencing nausea vs placebo", "setting": "[5]; 400 mg", "value": "significant reduction"}, {"measurement": "bleeding or renal complications", "setting": "[5]; 400 mg and 800 mg", "value": "no additional bleeding or renal complications"}, {"measurement": "patients experiencing serious adverse events vs placebo", "setting": "[5]; 400 mg and 800 mg", "value": "no significant differences in the number of patients experiencing serious adverse events between groups"}, {"measurement": "Dizziness vs placebo", "setting": "[5]; 800 mg", "value": "experienced more often"}, {"measurement": "patients experiencing diarrhea vs morphine only (placebo)", "setting": "[5]; 800 mg", "value": "significant reduction"}, {"measurement": "patients experiencing nausea vs placebo", "setting": "[5]; 800 mg", "value": "trending toward significance"}, {"measurement": "patient deaths", "setting": "[5]; 14 day study", "value": "no patient deaths"}, {"measurement": "patients experiencing gastrointestinal disorders and fever vs morphine only (placebo)", "setting": "[5]; both 400 mg and 800 mg", "value": "significant reduction"}]}
